From ChEMBL document CHEMBL5321224, “Antimicrobial peptides: Structure, mechanism, and modification” (2023)
Activity calls are given as the source filed them. The calls are words filed in the database; no cut-off is given here. Non-standard residues stand in square brackets, D forms with d. Residues, ends and D or L forms follow the SMILES beside them. βAla = NCCC(=O)O

Columns and labels:
Type in all cases: functional
Escherichia coli [1] = experiment: Antimicrobial activity against Escherichia coli assessed as reduction of microbial growth incubated overnight
Pseudomonas aeruginosa [2] = experiment: Antimicrobial activity against Pseudomonas aeruginosa assessed as reduction of microbial growth incubated overnight
Staphylococcus aureus [3] = experiment: Antimicrobial activity against Staphylococcus aureus assessed as reduction of microbial growth incubated overnight
Staphylococcus aureus [4] = experiment: Antimicrobial activity against Staphylococcus aureus assessed as reduction of microbial growth incubated for 24 hrs
Escherichia coli [5] = experiment: Antimicrobial activity against Escherichia coli assessed as reduction of microbial growth incubated for 24 hrs
Pseudomonas aeruginosa [6] = experiment: Antimicrobial activity against Pseudomonas aeruginosa assessed as reduction of microbial growth incubated for 24 hrs
Escherichia coli [7] = experiment: Antimicrobial activity against Escherichia coli assessed as reduction of microbial growth incubated for 6 to 9 hr by macrodilution method; settings: time 6-9 hrs
Pseudomonas aeruginosa [8] = experiment: Antimicrobial activity against Pseudomonas aeruginosa assessed as reduction of microbial growth incubated for 6 to 9 hr by macrodilution method; settings: time 6-9 hrs
Staphylococcus aureus [9] = experiment: Antimicrobial activity against Staphylococcus aureus assessed as reduction of microbial growth incubated for 6 to 9 hr by macrodilution method; settings: time 6-9 hrs
Escherichia coli [10] = experiment: Antimicrobial activity against Escherichia coli assessed as reduction of microbial growth
Pseudomonas aeruginosa [11] = experiment: Antimicrobial activity against Pseudomonas aeruginosa assessed as reduction of microbial growth
Staphylococcus aureus [12] = experiment: Antimicrobial activity against Staphylococcus aureus assessed as reduction of microbial growth

Row | Compound | LD (Escherichia coli [1]) [µM] | LD (Pseudomonas aeruginosa [2]) [µM] | LD (Staphylococcus aureus [3]) [µM] | MIC (Escherichia coli [7]) [µg/mL] | MIC (Pseudomonas aeruginosa [8]) [µg/mL] | MIC (Staphylococcus aureus [9]) [µg/mL] | further results
1 | CC[C@H](C)[C@H](NC(=O)CNC(=O)[C@@H]1CCCN1C(=O)CNC(=O)[C@H](C)NC(=O)[C@H](CCCCN)NC(=O)[C@@H](NC(=O)[C@@H](NC(=O)CNC(=O)[C@H](CC(=O)O)NC(=O)[C@H](CCCNC(=N)N)NC(=O)[C@@H](NC(=O)[C@H](CC(N)=O)NC(=O)[C@H](CCC(N)=O)NC(=O)CNC(=O)[C@@H](NC(=O)[C@H](CCCCN)NC(=O)[C@H](CCC(=O)O)NC(=O)[C@@H](NC(=O)[C@H](CCCCN)NC(=O)[C@H](CCCCN)NC(=O)[C@H](Cc1ccccc1)NC(=O)[C@H](CC(C)C)NC(=O)[C@H](CCCCN)NC(=O)[C@H](Cc1c[nH]c2ccccc12)NC(=O)[C@@H](N)CCCCN)[C@@H](C)CC)C(C)C)[C@@H](C)CC)[C@@H](C)CC)[C@@H](C)CC)C(=O)NCC(=O)N[C@@H](C)C(=O)N[C@H](C(=O)N[C@@H](CC(C)C)C(=O)N[C@@H](CCCCN)C(=O)N[C@H](C(=O)N[C@@H](CC(C)C)C(=O)N[C@H](C(=O)N[C@H](C(=O)NCC(=O)N[C@@H](CC(C)C)C(=O)O)[C@@H](C)O)[C@@H](C)O)C(C)C)C(C)C | 0.3 | 1 | 6 | – | – | – | –
2 | CC[C@H](C)[C@H](NC(=O)CN)C(=O)NCC(=O)N[C@@H](C)C(=O)N[C@H](C(=O)N[C@@H](CC(C)C)C(=O)N[C@@H](CCCCN)C(=O)N[C@H](C(=O)N[C@@H](CC(C)C)C(=O)N[C@H](C(=O)N[C@H](C(=O)NCC(=O)N[C@@H](CC(C)C)C(=O)N[C@@H](CCCCN)C(=O)N[C@@H](Cc1c[nH]c2ccccc12)C(=O)N[C@@H](CCCCN)C(=O)N[C@@H](CC(C)C)C(=O)N[C@@H](Cc1ccccc1)C(=O)N[C@@H](CCCCN)C(=O)N[C@@H](CCCCN)C(=O)N[C@H](C(=O)N[C@@H](CCC(=O)O)C(=O)N[C@@H](CCCCN)C(=O)N[C@H](C(=O)NCC(=O)N[C@@H](CCC(N)=O)C(=O)N[C@@H](CC(N)=O)C(=O)N[C@H](C(=O)N[C@@H](CCCNC(=N)N)C(=O)N[C@@H](CC(=O)O)C(=O)NCC(=O)N[C@H](C(=O)N[C@H](C(=O)N[C@@H](CCCCN)C(=O)N[C@@H](C)C(=O)O)[C@@H](C)CC)[C@@H](C)CC)[C@@H](C)CC)C(C)C)[C@@H](C)CC)[C@@H](C)O)[C@@H](C)O)C(C)C)C(C)C | – | – | – | – | – | – | LD (Staphylococcus aureus [4]): 5 µM; LD (Escherichia coli [5]): 0.7 µM; LD (Pseudomonas aeruginosa [6]): 8 µM
3 | CC[C@@H](C)[C@H](NC(=O)[C@@H](NC(=O)CNC(=O)[C@H](CC(=O)O)NC(=O)[C@H](CCCNC(=N)N)NC(=O)[C@@H](NC(=O)[C@H](CC(N)=O)NC(=O)[C@H](CCC(N)=O)NC(=O)CNC(=O)[C@@H](NC(=O)[C@H](CCCCN)NC(=O)[C@H](CCC(=O)O)NC(=O)[C@@H](NC(=O)[C@H](CCCCN)NC(=O)[C@H](CCCCN)NC(=O)[C@H](Cc1ccccc1)NC(=O)[C@H](CC(C)C)NC(=O)[C@H](CCCCN)NC(=O)[C@H](Cc1c[nH]c2ccccc12)NC(=O)[C@@H](N)CCCCN)[C@@H](C)CC)C(C)C)[C@@H](C)CC)[C@@H](C)CC)C(=O)N[C@@H](CCCCN)C(=O)N[C@@H](C)C(=O)NCC(=O)N1CCC[C@H]1C(=O)N[C@@H](C)C(=O)N[C@H](C(=O)N[C@@H](C)C(=O)N[C@H](C(=O)N[C@H](C(=O)NCC(=O)N[C@@H](CCC(N)=O)C(=O)N[C@@H](C)C(=O)N[C@H](C(=O)N[C@@H](CCC(N)=O)C(=O)N[C@H](C(=O)N[C@@H](C)C(=O)N[C@@H](CCCCN)C(=O)O)[C@@H](C)CC)[C@@H](C)O)C(C)C)C(C)C)C(C)C | 0.2 | 2 | >200 | – | – | – | –
4 | CC[C@H](C)[C@H](NC(=O)CN)C(=O)NCC(=O)N[C@@H](C)C(=O)N[C@H](C(=O)N[C@@H](CC(C)C)C(=O)N[C@@H](CCCCN)C(=O)N[C@H](C(=O)N[C@@H](CC(C)C)C(=O)N[C@H](C(=O)N[C@H](C(=O)NCC(=O)N[C@@H](CC(C)C)C(=O)N[C@@H](CCCCN)C(=O)N[C@@H](Cc1c[nH]c2ccccc12)C(=O)N[C@@H](CCCCN)C(=O)N[C@@H](CC(C)C)C(=O)N[C@@H](Cc1ccccc1)C(=O)N[C@@H](CCCCN)C(=O)N[C@@H](CCCCN)C(=O)N[C@H](C(=O)N[C@@H](CCC(=O)O)C(=O)N[C@@H](CCCCN)C(=O)N[C@H](C(=O)NCC(=O)N[C@@H](CCC(N)=O)C(=O)O)C(C)C)[C@@H](C)CC)[C@@H](C)O)[C@@H](C)O)C(C)C)C(C)C | 1 | 5 | 5 | – | – | – | –
5 | CC[C@H](C)[C@H](NC(=O)[C@H](CCCCN)NC(=O)[C@H](CCCCN)NC(=O)[C@H](Cc1ccccc1)NC(=O)[C@H](CC(C)C)NC(=O)[C@H](CCCCN)NC(=O)[C@H](Cc1c[nH]c2ccccc12)NC(=O)[C@@H](N)CCCCN)C(=O)N[C@@H](CCC(=O)O)C(=O)N[C@@H](CCCCN)C(=O)N[C@H](C(=O)NCC(=O)N[C@@H](CCC(N)=O)C(=O)NCC(=O)N[C@@H](C(=O)NCC(=O)N[C@@H](C)C(=O)N[C@H](C(=O)N[C@@H](CC(C)C)C(=O)N[C@@H](CCCCN)C(=O)N[C@H](C(=O)N[C@@H](CC(C)C)C(=O)N[C@H](C(=O)N[C@H](C(=O)NCC(=O)N[C@@H](CC(C)C)C(=O)O)[C@@H](C)O)[C@@H](C)O)C(C)C)C(C)C)[C@@H](C)CC)C(C)C | 0.5 | 1 | 2 | – | – | – | –
6 | CC[C@H](C)[C@H](NC(=O)CN)C(=O)NCC(=O)N[C@@H](CCCCN)C(=O)N[C@@H](Cc1ccccc1)C(=O)N[C@@H](CC(C)C)C(=O)N[C@@H](Cc1c[nH]cn1)C(=O)N[C@@H](CO)C(=O)N[C@H](C)C(=O)N[C@@H](CCCCN)C(=O)N[C@@H](CCCCN)C(=O)N[C@@H](Cc1ccccc1)C(=O)N[C@H](C)C(=O)N[C@@H](CCCCN)C(=O)N[C@@H](C)C(=O)N[C@@H](Cc1ccccc1)C(=O)N[C@H](C(=O)N[C@H](C)C(=O)N[C@@H](CCC(=O)O)C(=O)N[C@H](C(=O)N[C@@H](CCSC)C(=O)N[C@@H](CC(N)=O)C(=O)N[C@@H](CO)C(N)=O)[C@@H](C)CC)C(C)C (H-GIGKFLHS[dA]KKF[dA]KAFV[dA]EIMNS-NH2) | – | – | – | > 100 | > 100 | > 100 | –
7 | CC[C@H](C)[C@H](NC(=O)CNC(=O)CCN)C(=O)NCC(=O)N[C@@H](CCCCN)C(=O)N[C@@H](Cc1ccccc1)C(=O)N[C@@H](CC(C)C)C(=O)N[C@@H](Cc1c[nH]cn1)C(=O)N[C@@H](C)C(=O)N[C@@H](C)C(=O)N[C@@H](CCCCN)C(=O)N[C@@H](CCCCN)C(=O)N[C@@H](Cc1ccccc1)C(=O)N[C@@H](C)C(=O)N[C@@H](CCCCN)C(=O)N[C@@H](C)C(=O)N[C@@H](Cc1ccccc1)C(=O)N[C@H](C(=O)N[C@@H](C)C(=O)N[C@@H](CCC(=O)O)C(=O)N[C@H](C(=O)N[C@@H](CCSC)C(=O)N[C@@H](CC(N)=O)C(=O)N[C@@H](CO)C(N)=O)[C@@H](C)CC)C(C)C (H-[βAla]GIGKFLHAAKKFAKAFVAEIMNS-NH2) | – | – | – | 5 | 50 | 5 | –
8 | CC[C@H](C)[C@H](NC(=O)CN)C(=O)NCC(=O)N[C@@H](C)C(=O)N[C@H](C(=O)N[C@@H](CC(C)C)C(=O)N[C@@H](CCCCN)C(=O)N[C@H](C(=O)N[C@@H](CC(C)C)C(=O)N[C@H](C(=O)N[C@H](C(=O)NCC(=O)N[C@@H](CC(C)C)C(=O)N1CCC[C@H]1C(=O)N[C@@H](C)C(=O)N[C@@H](CC(C)C)C(=O)N[C@H](C(=O)N[C@@H](CO)C(=O)N[C@@H](Cc1c[nH]c2ccccc12)C(=O)N[C@H](C(=O)N[C@@H](CCCCN)C(=O)N[C@@H](CCCNC(=N)N)C(=O)N[C@@H](CCCCN)C(=O)N[C@@H](CCCNC(=N)N)C(=O)N[C@@H](CCC(N)=O)C(=O)N[C@@H](CCC(N)=O)C(N)=O)[C@@H](C)CC)[C@@H](C)CC)[C@@H](C)O)[C@@H](C)O)C(C)C)C(C)C [MELITTIN] | 0.8 | 3 | 0.2 | – | – | – | –
9 | Ac-GIGKFLHAAKKFAKAFVAEIMNS-NH2 | – | – | – | 25 | > 100 | 25 | –
10 | H-FLHSAKKFGKAFVGEIMNS-OH | – | – | – | – | – | – | MIC (Escherichia coli [10]): 200 µg/mL; MIC (Pseudomonas aeruginosa [11]): inactive; MIC (Staphylococcus aureus [12]): inactive
11 | H-GIGKFLHAAKKFAKAFVAEIMNS-NH2 | – | – | – | 2.5 | 25 | 10 | –
